Test results from patent US6737383B1, “Herbicidal oxadiazolidines” (priority 1999, dated 2004).

Key:
sugar beet = assay: Test B pre/postemergence sugar beet; type: in vivo, Beta vulgaris; settings: for Sugarbeets plant response rating: scale of 0 to 10 where 0 is no effect and 10 is complete control
Outline: (§1)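 Response is a visual 0-to-10 score relative to untreated plants, where 0 means no effect and 10 means complete control, taken twelve to sixteen days after application. Treatments went onto soil at planting and onto foliage of 1- to 4-leaf plants, using a surfactant-containing non-phytotoxic solvent.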

wheat = assay: Test B pre/postemergence wheat; type: in vivo, Triticum aestivum; settings: for Wheat plant response rating: scale of 0 to 10 where 0 is no effect and 10 is complete control
Outline: as §1

cocklebur = assay: Test B pre/postemergence cocklebur; type: in vivo, Xanthium strumarium; settings: for Cocklebur plant response rating: scale of 0 to 10 where 0 is no effect and 10 is complete control
Outline: as §1

pigweed = assay: Test B pre/postemergence pigweed; type: in vivo, Amaranthus retroflexus; settings: for Redroot pigweed plant response rating: scale of 0 to 10 where 0 is no effect and 10 is complete control
Outline: as §1

rape = assay: Test B pre/postemergence rape; type: in vivo, Brassica napus; settings: for Rape plant response rating: scale of 0 to 10 where 0 is no effect and 10 is complete control
Outline: as §1

bamyardgrass = assay: Test B flood test barnyardgrass; type: in vivo, Echinochloa crus-galli
Outline: (§2)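 Each value is a visual injury score relative to controls, with 10 meaning complete control and 0 no effect. Evaluation took place twelve to sixteen days after the 2-leaf-stage plants were treated and kept in the greenhouse.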

surinam grass = assay: Test B pre/postemergence surinam grass; type: in vivo, Brachiaria decumbens; settings: for B. signalgrass plant response rating: scale of 0 to 10 where 0 is no effect and 10 is complete control
Outline: as §1

duck salad = assay: Test B flood test duck salad; type: in vivo, Heteranthera limosa
Outline: as §2

smallflower flatsedge = assay: Test B flood test smallflower flatsedge; type: in vivo, Cyperus difformis
Outline: as §2

purple nutsedge = assay: Test B pre/postemergence purple nutsedge; type: in vivo, Cyperus rotundus; settings: for Nutsedge plant response rating: scale of 0 to 10 where 0 is no effect and 10 is complete control
Outline: as §1

wild oat = assay: Test B pre/postemergence wild oat; type: in vivo, Avena fatua; settings: for Wild oats plant response rating: scale of 0 to 10 where 0 is no effect and 10 is complete control
Outline: as §1

crabgrass = assay: Test B pre/postemergence crabgrass; type: in vivo, Digitaria sanguinalis; settings: for Crabgrass plant response rating: scale of 0 to 10 where 0 is no effect and 10 is complete control
Outline: as §1

morningglory = assay: Test B pre/postemergence morningglory; type: in vivo, Ipomoea hederacea; settings: for Morningglory plant response rating: scale of 0 to 10 where 0 is no effect and 10 is complete control
Outline: as §1

rice = assay: Test B flood test rice; type: in vivo, Oryza sativa
Outline: as §2

giant foxtail = assay: Test B pre/postemergence giant foxtail; type: in vivo, Setaria faberii; settings: for Giant foxtail plant response rating: scale of 0 to 10 where 0 is no effect and 10 is complete control
Outline: as §1

corn = assay: Test B pre/postemergence corn; type: in vivo, Zea mays; settings: for Corn plant response rating: scale of 0 to 10 where 0 is no effect and 10 is complete control
Outline: as §1

[1] = Postemergence, Rate 125 g/ha, scale 0 to 10, 0 is no effect, 10 is complete control
[2] = Postemergence, Rate 250 g/ha, scale 0 to 10, 0 is no effect, 10 is complete control
[3] = Preemergence, Rate 62 g/ha, scale 0 to 10 (0 no effect, 10 complete control)
[4] = Rate 500 g/ha, Postemergence, scale 0 to 10, 0 no effect, 10 complete control
[5] = Rate 62 g/ha, flood test species, Pre-emergence, visual evaluation after twelve to sixteen days
[6] = Rate 125 g/ha, under heading Pre-emergence, flood test species, visual evaluation after twelve to sixteen days
[7] = Rate 250 g/ha, Pre-emergence, flood-test species, scale 0 to 10, 0 is no effect, 10 is complete control
[8] = Rate 500 g/ha, Pre-emergence, flood test species, scale 0 to 10 (0 no effect, 10 complete control)

## CCOc1nc(C(F)(F)F)c(Cn2c(=O)on(C(=O)N(c3ccccc3)C(C)C)c2=O)s1 [Compound 379]
Sugar beet; [1]
  Plant response rating, Sugarbeets: 0
Sugar beet; [2]
  Plant response rating, Sugarbeets: 0
Sugar beet; [3]
  Plant response rating, Sugarbeets: 0
Sugar beet; Preemergence, Rate 125 g/ha
  Sugarbeets plant response rating (0 to 10 scale): 0
Sugar beet; Preemergence, Rate 250 g/ha
  Sugarbeets plant response rating: 0
Sugar beet; Preemergence, Rate 500 g/ha
  Sugarbeets plant response rating: 0
Sugar beet; Rate 62 g/ha, Postemergence
  Sugarbeets plant response rating: 0
Sugar beet; [4]
  Plant response rating, Sugarbeets: 0
wheat; [1]
  Plant response rating, Wheat: 0
wheat; [2]
  Plant response rating, Wheat: 0
wheat; [3]
  Plant response rating, Wheat: 0
wheat; Preemergence, Rate 125 g/ha
  Wheat plant response rating (0 to 10 scale): 0
wheat; Preemergence, Rate 250 g/ha
  Wheat plant response rating: 0
wheat; Preemergence, Rate 500 g/ha
  Wheat plant response rating: 0
wheat; Rate 62 g/ha, Postemergence
  Wheat plant response rating: 0
wheat; [4]
  Plant response rating, Wheat: 0
cocklebur; [1]
  Plant response rating, Cocklebur: 0
cocklebur; [2]
  Plant response rating, Cocklebur: 0
cocklebur; [3]
  Plant response rating, Cocklebur: 0
cocklebur; Preemergence, Rate 125 g/ha
  Cocklebur plant response rating (0 to 10 scale): 0
cocklebur; Preemergence, Rate 250 g/ha
  Cocklebur plant response rating: 0
cocklebur; Preemergence, Rate 500 g/ha
  Cocklebur plant response rating: 0
cocklebur; Rate 62 g/ha, Postemergence
  Cocklebur plant response rating: 0
cocklebur; [4]
  Plant response rating, Cocklebur: 0
pigweed; [1]
  Plant response rating, Redroot pigweed: 0
pigweed; [2]
  Plant response rating, Redroot pigweed: 1
pigweed; [3]
  Plant response rating, Redroot pigweed: 0
pigweed; Preemergence, Rate 125 g/ha
  Redroot pigweed plant response rating (0 to 10 scale): 0
pigweed; Preemergence, Rate 250 g/ha
  Redroot pigweed plant response rating: 0
pigweed; Preemergence, Rate 500 g/ha
  Redroot pigweed plant response rating: 0
pigweed; Rate 62 g/ha, Postemergence
  Redroot pigweed plant response rating: 0
pigweed; [4]
  Plant response rating, Redroot pigweed: 1
rape; [1]
  Plant response rating, Rape: 0
rape; [2]
  Plant response rating, Rape: 0
rape; [3]
  Plant response rating, Rape: 0
rape; Preemergence, Rate 125 g/ha
  Rape plant response rating (0 to 10 scale): 0
rape; Preemergence, Rate 250 g/ha
  Rape plant response rating: 0
rape; Preemergence, Rate 500 g/ha
  Rape plant response rating: 0
rape; Rate 62 g/ha, Postemergence
  Rape plant response rating: 0
rape; [4]
  Plant response rating, Rape: 0
bamyardgrass; [5]
  Plant response rating, Barnyardgrass (0 to 10 scale, 0 is no effect, 10 is complete control): 0
bamyardgrass; [6]
  Barnyardgrass plant response rating (0 to 10 scale, 0 is no effect, 10 is complete control): 0
bamyardgrass; [7]
  Barnyardgrass plant response rating: 0
bamyardgrass; [8]
  Barnyardgrass plant response rating: 0
Surinam grass; [1]
  Plant response rating, B. signalgrass: 0
Surinam grass; [2]
  Plant response rating, B. signalgrass: 0
Surinam grass; [3]
  Plant response rating, B. signalgrass: 0
Surinam grass; Preemergence, Rate 125 g/ha
  B. signalgrass plant response rating (0 to 10 scale, 0 is no effect, 10 is complete control): 0
Surinam grass; Preemergence, Rate 250 g/ha
  B. signalgrass plant response rating: 0
Surinam grass; Preemergence, Rate 500 g/ha
  B. signalgrass plant response rating: 0
Surinam grass; Rate 62 g/ha, Postemergence
  B. signalgrass plant response rating: 0
Surinam grass; [4]
  Plant response rating, B. signalgrass: 0
Duck salad; [5]
  Plant response rating, Ducksalad (0 to 10 scale, 0 is no effect, 10 is complete control): 0
Duck salad; [6]
  Ducksalad plant response rating (0 to 10 scale, 0 is no effect, 10 is complete control): 0
Duck salad; [7]
  Ducksalad plant response rating: 0
Duck salad; [8]
  Ducksalad plant response rating: 0
Smallflower flatsedge; [5]
  Plant response rating, S. Flatsedge (0 to 10 scale, 0 is no effect, 10 is complete control): 0
Smallflower flatsedge; [6]
  S. Flatsedge plant response rating (0 to 10 scale, 0 is no effect, 10 is complete control): 0
Smallflower flatsedge; [7]
  S. Flatsedge plant response rating: 0
Smallflower flatsedge; [8]
  S. Flatsedge plant response rating: 0
Purple nutsedge; [1]
  Plant response rating, Nutsedge: 0
Purple nutsedge; [2]
  Plant response rating, Nutsedge: 0
Purple nutsedge; [3]
  Plant response rating, Nutsedge: 0
Purple nutsedge; Preemergence, Rate 125 g/ha
  Nutsedge plant response rating (0 to 10 scale): 0
Purple nutsedge; Preemergence, Rate 250 g/ha
  Nutsedge plant response rating: 0
Purple nutsedge; Preemergence, Rate 500 g/ha
  Nutsedge plant response rating: 0
Purple nutsedge; Rate 62 g/ha, Postemergence
  Nutsedge plant response rating: 0
Purple nutsedge; [4]
  Plant response rating, Nutsedge: 0
Wild oat; [1]
  Plant response rating, Wild oats: 0
Wild oat; [2]
  Plant response rating, Wild oats: 0
Wild oat; [3]
  Plant response rating, Wild oats: 0
Wild oat; Preemergence, Rate 125 g/ha
  Wild oats plant response rating (0 to 10 scale): 0
Wild oat; Preemergence, Rate 250 g/ha
  Wild oats plant response rating: 0
Wild oat; Preemergence, Rate 500 g/ha
  Wild oats plant response rating: 0
Wild oat; Rate 62 g/ha, Postemergence
  Wild oats plant response rating: 0
Wild oat; [4]
  Plant response rating, Wild oats: 0
crabgrass; [1]
  Plant response rating, Crabgrass: 0
crabgrass; [2]
  Plant response rating, Crabgrass: 0
crabgrass; [3]
  Plant response rating, Crabgrass: 0
crabgrass; Preemergence, Rate 125 g/ha
  Crabgrass plant response rating (0 to 10 scale): 0
crabgrass; Preemergence, Rate 250 g/ha
  Crabgrass plant response rating: 7
crabgrass; Preemergence, Rate 500 g/ha
  Crabgrass plant response rating: 8
crabgrass; Rate 62 g/ha, Postemergence
  Crabgrass plant response rating: 0
crabgrass; [4]
  Plant response rating, Crabgrass: 0
morningglory; [1]
  Plant response rating, Morningglory: 7
morningglory; [2]
  Plant response rating, Morningglory: 8
morningglory; [3]
  Plant response rating, Morningglory: 0
morningglory; Preemergence, Rate 125 g/ha
  Morningglory plant response rating (0 to 10 scale): 0
morningglory; Preemergence, Rate 250 g/ha
  Morningglory plant response rating: 0
morningglory; Preemergence, Rate 500 g/ha
  Morningglory plant response rating: 0
morningglory; Rate 62 g/ha, Postemergence
  Morningglory plant response rating: 5
morningglory; [4]
  Plant response rating, Morningglory: 10
rice; [5]
  Plant response rating, Rice (0 to 10 scale, 0 is no effect, 10 is complete control): 0
rice; [6]
  Rice plant response rating (0 to 10 scale, 0 is no effect, 10 is complete control): 0
rice; [7]
  Rice plant response rating: 0
rice; [8]
  Rice plant response rating: 0
Giant foxtail; [1]
  Plant response rating, Giant foxtail: 0
Giant foxtail; [2]
  Plant response rating, Giant foxtail: 2
Giant foxtail; [3]
  Plant response rating, Giant foxtail: 0
Giant foxtail; Preemergence, Rate 125 g/ha
  Giant foxtail plant response rating (0 to 10 scale): 1
Giant foxtail; Preemergence, Rate 250 g/ha
  Giant foxtail plant response rating: 6
Giant foxtail; Preemergence, Rate 500 g/ha
  Giant foxtail plant response rating: 9
Giant foxtail; Rate 62 g/ha, Postemergence
  Giant foxtail plant response rating: 0
Giant foxtail; [4]
  Plant response rating, Giant foxtail: 7
corn; [1]
  Plant response rating, Corn: 0
corn; [2]
  Plant response rating, Corn: 0
corn; [3]
  Plant response rating, Corn: 0
corn; Preemergence, Rate 125 g/ha
  Corn plant response rating (0 to 10 scale): 0
corn; Preemergence, Rate 250 g/ha
  Corn plant response rating: 0
corn; Preemergence, Rate 500 g/ha
  Corn plant response rating: 0
corn; Rate 62 g/ha, Postemergence
  Corn plant response rating: 0
corn; [4]
  Plant response rating, Corn: 0
